For one assay, the system named is RAW 264.7 cells. The experiment in a line: Cytokine levels of RAW 264.7 cells after treatment with LPS (ELISA), with or without pathway inhibitor. The assay is classed as cell-based, mouse. The conditions noted are these: 1 h pre-treatment, LPS 1 μg/ml, 16 h, n = 6. The protocol: RAW 264.7 cells and RAW 264.7 cells stably expressing PBD-2 were pre-treated with S. Typhimurium at MOI = 10:1 for 1 h or with LPS (1 μg/ml) for 16 h, washed with PBS twice and incubated with RPMI 1640 that contained PBS or PBD-2 (10 μg/mL) for 16 h. RAW 264.7 cells stably expressing PBD-2 were maintained in RPMI 1640 that contained PBS for 16 h (n = 6 for each group). The expression levels of proinflammatory cytokines in the cell culture supernatant were determined through ELISA in accordance with the manufacturer's instruction.
In the inhibition assay, RAW 264.7 cells were pre-treated with 4 μg/ml NF-κB inhibitor (Celastrol, # ant-cls, InvivoGen®, San Diego, CA, USA) or 1 μg/ml TLR4 inhibitor (CLI-095, # tlrl-cli95, InvivoGen®, San Diego, CA, USA) for 1 h. Subsequently, RAW 264.7 cells were treated with LPS (1 μg/ml) alone or together with PBD-2 (10 μg/mL) for 16 h (n = 6 each group). RAW 264.7 cells treated with PBS were used as control. The levels of the cytokines in the supernatant of the cells were detected through ELISA.
A general note: ELISA stands for enzyme-linked immunosorbent assay.

The test system of the next assay is NF-κB. The experiment in a line: NF-κB promoter activity, luciferase reporter assay in RAW 264.7 cells. The assay is classed as cell-based, mouse. The conditions noted are these: CLI-095 1 μg/ml, 1 h pre-treatment; LPS 1 μg/ml, 24 h; n = 6. The protocol: A luciferase reporter assay was used to detect the promoter activity of NF-κB. RAW 264.7 cells were seeded in a 24-well plate for 24 h and then cotransfected with 800 ng/well of the NF-κB reporter plasmid (pGL3-Basic) and 20 ng/well of pLR-TK. WT […] luciferase (Rluc) served as the reporter gene control vector. […] In the inhibition assay, the cells were pre-treated with 1 μg/ml TLR4 inhibitor for 1 h and treated with LPS (1 μg/ml) alone or together with PBD-2 (10 μg/mL) for 24 h (n = 6 each group). Luciferase units were detected to show the promoter activity of NF-κB ([28]).
In general terms: In a reporter assay the amount or activity of a reporter protein is the signal.

The test system of assay [1] is release of inflammatory cytokines. As to conditions: cited from earlier work. The text has this:
Bacterial drug resistance has become a global concern. Endeavors in search for antibiotic substitutes are desperately needed. Antimicrobial peptides (AMPs) are natural anti-infective agents identified in various species and implicated in innate immunity ([1]). […] AMPs not only have a direct bactericidal activity but also regulate immune and inflammatory responses ([3]). As bactericides, cationic AMPs exert bactericidal act ... || The colitis caused by S. Typhimurium mainly results from intestinal mucosal inflammation after the breakage of intestinal epithelial barrier by pathogens ([26]).

For assay [2] the following is noted: cited from earlier work. The text has this:
(§1) The mechanism of how AMPs modulate immune signaling pathways has yet to be fully understood. […] Instead, it interacted with TLR4. […] Therefore, th ...

In the next assay the test system is TLR3. As to conditions: TLR3 ligand poly (I:C); ref [6]; cited from earlier work.
From the text: as §1

The subject of the next assay is Bordetella pertussis. As to conditions: pigs; ref [35]; cited from earlier work. From the text: (§2) The antibiotic resistance of pathogenic bacteria has become a global threat ([30]). Defensins are natural peptides secreted by many species and implicated in resisting bacterial infection ([31]). PBD-2 is one of the defensins expressed in pigs. […] The invasion of S. Typhimurium can increase the expression of PBD-2 in porcine epithelial cells ([32]). […] PBD-2 also improves the growth perf ...

Assay [3] has as its system intestinal epithelial cells. As to conditions: cells transfected with genes encoding hBD-2 and hBD-3, infected with S. Typhimurium; vs untransfected; ref [44]; cited from earlier work. From the text:
The colitis caused by S. Typhimurium mainly results from intestinal mucosal inflammation after the breakage of intestinal epithelial barrier by pathogens ([26]).

The test system of a further assay is TLR1. The conditions noted are these: ref [50]; cited from earlier work.
From the text: as §1

The subject of a further assay is TLR2. The conditions noted are these: ref [50]; cited from earlier work.
From the text: as §1

Assay [4] has as its system signaling pathways downstream of TLR4. The conditions noted are these: MyD88-dependent and MyD88-independent pathways; ref [50]; cited from earlier work.
From the text: as §1

The conditions of assay [5]: cited from earlier work.
From the text: as §2
The source holds these as a separate data set.

The target in assay [6] is T1, TLR4, purified recombinant protein (Cloud-clone # RPA753Mu01) (UniProt Q9QUK6 26-638).
T1 construct: Toll-like receptor 4 (TLR4), bought recombinant protein; the vendor's data sheet is needed; also called purified TLR4; source: bought: Cloud-clone (# RPA753Mu01)
T1 sequence (looked up): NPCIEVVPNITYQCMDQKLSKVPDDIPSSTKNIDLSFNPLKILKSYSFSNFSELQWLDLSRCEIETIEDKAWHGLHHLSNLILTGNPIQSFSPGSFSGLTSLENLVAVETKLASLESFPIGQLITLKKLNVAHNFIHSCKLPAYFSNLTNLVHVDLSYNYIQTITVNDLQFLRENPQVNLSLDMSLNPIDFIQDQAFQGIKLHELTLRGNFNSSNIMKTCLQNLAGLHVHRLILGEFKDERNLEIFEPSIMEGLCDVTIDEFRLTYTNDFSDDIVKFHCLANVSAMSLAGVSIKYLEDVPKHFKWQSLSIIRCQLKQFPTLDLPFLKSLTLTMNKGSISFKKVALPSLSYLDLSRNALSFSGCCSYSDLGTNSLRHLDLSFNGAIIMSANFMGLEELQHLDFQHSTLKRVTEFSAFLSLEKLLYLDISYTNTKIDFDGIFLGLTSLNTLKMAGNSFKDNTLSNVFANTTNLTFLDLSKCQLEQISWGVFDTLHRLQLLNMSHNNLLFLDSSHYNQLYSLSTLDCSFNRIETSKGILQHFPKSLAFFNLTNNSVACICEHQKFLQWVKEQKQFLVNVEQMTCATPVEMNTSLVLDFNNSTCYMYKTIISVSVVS
The experiment in a line: ITC; Nano-ITC, 25°C; PBD-2 in the syringe (0.215 mM), TLR4 in the calorimeter cell (0.016 to 0.050 mM); control: PBD-2 into PBS. As to conditions: both partners purified. (In general: ITC needs no label: the signal is the heat of the interaction.)

Like-named read-outs stand apart in the source and are kept apart here. Where no end group is shown, it is not given here.

For `CC1=C(O)C(=O)C=C2C1=CC=C1[C@@]2(C)CC[C@@]2(C)[C@@H]3C[C@](C)(C(=O)O)CC[C@]3(C)CC[C@]12C` [NF-κB inhibitor, Celastrol, reference compound], in the assay with RAW 264.7 cells (Celastrol 4 μg/ml), the “secretion of IL-1β triggered by LPS” value was “significantly reduced the secretion of TNF-α, IL-6, and IL-1β triggered by LPS”; the “secretion of IL-6 triggered by LPS” value was “significantly reduced the secretion of TNF-α, IL-6, and IL-1β triggered by LPS”; the “secretion of TNF-α triggered by LPS” value was “significantly reduced the secretion of TNF-α, IL-6, and IL-1β triggered by LPS”.
Consider `CCOC(=O)C1=CCCC[C@H]1S(=O)(=O)Nc1ccc(F)cc1Cl` [TLR4 inhibitor, reference compound], for which, in the assay on RAW 264.7 cells (CLI-095 1 μg/ml), the “secretion of IL-1β triggered by LPS” value is “significantly reduced the secretion of TNF-α, IL-6, and IL-1β triggered by LPS”; the “secretion of IL-6 triggered by LPS” value was “significantly reduced the secretion of TNF-α, IL-6, and IL-1β triggered by LPS”; the “secretion of TNF-α triggered by LPS” value is “significantly reduced the secretion of TNF-α, IL-6, and IL-1β triggered by LPS”. In addition, the “LPS-induced NF-κB promoter activity, TLR4 inhibitor” value in the assay with NF-κB is “inhibited the LPS-induced promoter activity of NF-κB in RAW 264.7”.
“LL-37: human AMP (LLGDFFRKSKEKIGKEFKRIVQRIKDFLRNLVPRTES; Antibacterial peptide LL-37; UniProt P49913 134-170, looked up)”: in assay [1] (ref [5]), the “release of inflammatory cytokines” value is “suppress the release of inflammatory cytokines”. Further, the suppression of inflammation entry in [1] (ref [6]) is given as “can suppress inflammation by inhibiting specific inflammatory signaling pathways”. Besides, the anti-endotoxin ability entry in assay [2] (ref [48]) is “exert anti-endotoxin abilities by either disrupting LPS or inhibiting the LPS-induced production of TNF-α”. Further, the TLR3-dependent immune responses entry with TLR3 is given as “TLR3-dependent immune responses are blocked by LL-37”.
For the molecule PR39, in [2] (ref [49]), the anti-endotoxin ability entry is listed as “exert anti-endotoxin abilities by either disrupting LPS or inhibiting the LPS-induced production of TNF-α”.
Consider “Porcine beta-defensin 1: another defensin from pigs and homolog of human beta-defensin 2 (NIGNSVSCLRNKGVCMPGKCAPKMKQIGTCGMPQVKCCKRK; ends and bridges not checked; cysteine pairing not given here; UniProt O62697 24-64, looked up)”, for which the “protection against Bordetella pertussis infection” value with Bordetella pertussis was “protects against Bordetella pertussis infection in pigs”.
Take “hBD3: human β-defensin 3 (GIINTLQKYYCRVRGGRCAVLSCLPKEEQIGKCSTRGRKCCRRKK; ends and bridges not checked; cysteine pairing not given here; UniProt P81534 23-67, looked up)”: the suppression of inflammation result in [1] (ref [7]) is reported as “can suppress inflammation by inhibiting specific inflammatory signaling pathways”. In addition, the “TNF-α and IL-6 secretion” value in assay [1] (ref [43]) was “suppressing TNF-α and IL-6 secretion”. Further, in [3], the “expression level of proinflammatory cytokines” value is listed as “decreased expression level of proinflammatory cytokines”. Further, in assay [2] (ref [50]), the “binding to LPS” value is recorded as “does not bind to LPS”. Further, in the assay with TLR1, the “interaction with TLR1” value was “can interact with TLR1 and TLR2, leading to the activation of the MyD88-dependent pathway”. For the same molecule, the “interaction with TLR2” value in the assay on TLR2 was “can interact with TLR1 and TLR2, leading to the activation of the MyD88-dependent pathway”. In addition, the LPS-induced inflammation result in assay [4] is “could inhibit the LPS-induced inflammation by repressing the signaling pathways downstream of TLR4”.
In the case of “hBD-1: β-defensin of human (DHYNCVSSGGQCLYSACPIFTKIQGTCYRGKAKCCK; ends and bridges not checked; cysteine pairing not given here; UniProt P60022 33-68, looked up)”, the “antibacterial effects in vivo” value in [5] (ref [36]) is on record as “have antibacterial effects in vivo”.
As to “hBD-2: β-defensin of human (GIGDPVTCLKSGAICHPVFCPRRYKQIGTCGLPGTKCCKKP; ends and bridges not checked; cysteine pairing not given here; UniProt O15263 24-64, looked up)”, the “antibacterial effects in vivo” value in assay [5] (ref [36]) is “have antibacterial effects in vivo”. For the same molecule, the “expression level of proinflammatory cytokines” value in assay [3] is listed as “decreased expression level of proinflammatory cytokines”.
On to “rMBD3: β-defensin 3 (rMBD3) of mice (KKINNPVSCLRKGGRCWNRCIGNTRQIGSCGVPFLKCCKRK; ends and bridges not checked; cysteine pairing not given here; UniProt Q9WTL0 23-63, looked up)”, for which the “antibacterial effects in vivo” value in assay [5] (mice, ref [37]) was “have antibacterial effects in vivo”.

B1: Porcine beta-defensin 2 (PBD-2), synthetic mature peptide (peptide)
peptide: DHYICAKKGGTCNFSPCPLFNRIEGTCYSGKAKCCIR
modifications: ends and bridges not checked; cysteine pairing not given here
notes: mature peptide of porcine beta-defensin 2 (PBD-2), pig; also called synthetic PBD-2; source: synthetic peptide (Neweast Biosciences, # 60001)
Consider B1, for which the equilibrium dissociation constant (Kd) in assay [6] turned out to be 3.75 µM.

As a reminder, the Kd is the equilibrium constant for the complex coming apart.
